Experiment [1] has as its target T1, Solute carrier family 22 member 12 (Homo sapiens, UniProt Q96S37).
T1 sequence (Q96S37 whole entry): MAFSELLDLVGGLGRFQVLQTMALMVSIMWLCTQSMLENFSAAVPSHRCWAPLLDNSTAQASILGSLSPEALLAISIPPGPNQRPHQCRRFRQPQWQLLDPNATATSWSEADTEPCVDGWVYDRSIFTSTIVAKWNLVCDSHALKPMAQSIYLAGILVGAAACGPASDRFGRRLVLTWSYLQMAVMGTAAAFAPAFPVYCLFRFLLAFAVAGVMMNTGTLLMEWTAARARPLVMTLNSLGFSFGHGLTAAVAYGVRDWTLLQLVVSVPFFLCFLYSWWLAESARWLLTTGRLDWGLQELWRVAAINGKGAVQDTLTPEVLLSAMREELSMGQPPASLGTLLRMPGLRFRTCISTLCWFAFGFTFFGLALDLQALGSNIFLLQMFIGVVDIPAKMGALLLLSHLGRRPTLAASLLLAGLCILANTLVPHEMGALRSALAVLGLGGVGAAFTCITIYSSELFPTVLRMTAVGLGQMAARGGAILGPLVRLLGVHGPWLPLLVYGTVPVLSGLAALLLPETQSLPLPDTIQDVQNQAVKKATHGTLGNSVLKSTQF
Nature of the experiment: Inhibitory Assay.

The target in experiment [2] is T2, Solute carrier family 22 member 11 (Homo sapiens, UniProt Q9NSA0).
T2 sequence (Q9NSA0 whole entry): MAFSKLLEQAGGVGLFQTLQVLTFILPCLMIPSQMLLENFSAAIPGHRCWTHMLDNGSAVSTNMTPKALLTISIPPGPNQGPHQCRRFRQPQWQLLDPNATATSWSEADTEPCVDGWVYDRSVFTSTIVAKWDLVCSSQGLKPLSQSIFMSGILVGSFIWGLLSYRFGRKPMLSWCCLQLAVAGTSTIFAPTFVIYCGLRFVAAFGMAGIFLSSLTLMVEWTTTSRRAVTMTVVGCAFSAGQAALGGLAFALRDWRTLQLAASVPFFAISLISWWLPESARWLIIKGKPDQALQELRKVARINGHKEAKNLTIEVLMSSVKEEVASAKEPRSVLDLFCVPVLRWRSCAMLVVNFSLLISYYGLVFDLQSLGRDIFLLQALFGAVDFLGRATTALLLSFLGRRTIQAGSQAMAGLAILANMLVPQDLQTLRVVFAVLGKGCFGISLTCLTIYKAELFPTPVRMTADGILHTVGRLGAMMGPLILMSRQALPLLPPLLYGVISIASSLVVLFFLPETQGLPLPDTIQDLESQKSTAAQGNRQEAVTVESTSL
Briefly: Inhibitory Assay.

As for `CC(C)(Sc1ccnc2ccc(F)cc12)C(=O)NS(C)(=O)=O` [US20240116873, Compound B], half-maximal inhibition in experiment [1] (IC50) required 2.79 µM.
In experiment [1], `CC(C)(Sc1ccnc2ccc(Br)cc12)C(=O)NS(=O)(=O)c1cccs1` [US20240116873, Compound E] came in with an IC50 of 3.42 µM.
On the same count and under the same terms, under `CCS(=O)(=O)NC(=O)C(C)(C)Sc1ccnc2ccc(Br)cc12` [US20240116873, Compound C] stands 1.18 µM; under `Cc1ccc2nccc(SC(C)(C)C(=O)NS(C)(=O)=O)c2c1` [US20240116873, Compound A], 3.15 µM.
Regarding `CC(C)(Sc1ccnc2ccc(C(F)(F)F)cc12)C(=O)NS(C)(=O)=O` [US20240116873, Compound D], the IC50 in experiment [2] amounted to 83.8 µM.

By IC50 is commonly meant the midpoint of a concentration-inhibition curve.
